Consider one compound from paper PMC4987650, “Structural Investigation of Park’s Nucleotide on Bacterial Translocase MraY: Discovery of Unexpected MraY Inhibitors” (Scientific Reports, 2016).

One assay addresses T1, MraYBS R281A mutant (Bacillus subtilis, UniProt Q03521, R281A).
T1 construct: MBP; made in house
Nature of the assay: Fluorescent enhancement assay, mutant MraY. It counts as biochemical. The following applies: 6 as the substrate. The protocol:
(§1) Site–directed mutagenesis of MraY. Site-directed mutagenesis of the B. subtilis MBP-tagged MraY enzyme was performed directly on the pMAL -BS-MraY-16 expression plasmid by using the “Quickchanged XL Site-Directed Mutagenesis Kit ’’ from stratagene and the oligonucleotides shown below. Mutations introduced in the mraY gene sequence were checked by DNA sequencing. […]
(§2) MraY-T51A-R 5’-[…]-3’
(§3) T53A MraY-T53A-F 5’-[…]-3’
(§4) MraY-T53A-R 5’-[…]-3’
(§5) K102A MraY-K102A-F 5’-[…]-3’
(§6) MraY-K102A-R 5’-[…]-3’
(§7) K226A Mray-K226A-F 5’-[…]-3’ […]
(§8) F228A MraY-F228A-F 5’-[…]-3’
(§9) MraY-F228A-R 5’-[…]-3’
(§10) Q271A Mray-Q271A-F 5’-[…]-3’
(§11) Mray-Q271A-R 5’-[…]-3’
(§12) R281A MraY-R281A-F 5’-[…]-3’
(§13) MraY-R281A-R 5’-[…]-3’
(§14) W297A MraY-W297A-F 5’-[…]-3’
(§15) MraY-W297A-R 5’-[…]-3’
(§16) Determine kinetic parameters by MraY fluorescence enhancement assay. The fluorescence enhancement assay was performed in 384-well plate as described by Bugg et al. with slight modifications.5 The reaction mixture containing MraYBS (10 μg/mL), C55P (200 μM) in 30 μL reaction buffer (30 mM Tris, 10 mM MgCl2, 10 mM NaCl, 0.1 mM Tween-20, 2.5% DMSO, pH 8.0) were pre-incubated at 37 °C for 15 min. The reactions were initiated by the addition of various concentrations of NBD-Park’s nucleotide 6 (0 to 160 μM). For inhibition study, a various concentrations of inhibitors were added before the addition of substrate 6. The continuous fluorescence increase over 60 min was monitored with λex 466 nm/λem 535 nm by fluorescence microplate reader (SpectraMax M5, Molecular Devices, LLC) at 37 °C. Linear regressions of increased fluorescent units (FLU) versus time (min) were used to calculate the initial velocities for each reaction. The kinetic parameters values (Ki, KM, and Vmax) were obtained by nonlinear regression analysis using the […] equation with the GraphPad Prism program (GraphPad Software, San
(§17) (1 picture or pasted object on this page, not shown here)

The next assay has as its target T2, MraYBS K226A mutant (Bacillus subtilis, UniProt Q03521, K226A).
T2 construct: MBP; made in house
As to the kind of experiment: Fluorescent enhancement assay, mutant MraY. The assay is classed as biochemical. The note with it: 6 as the substrate. The protocol:
as §1, §2, §3, §4, §5, §6, §7, §8, §9, §10, §11, §12, §13, §14, §15, §16, §17

Structures are written as SMILES.

Take `CC(=O)N[C@H]1[C@@H](OP(=O)(O)OP(=O)(O)OC[C@H]2O[C@@H](n3ccc(=O)[nH]c3=O)[C@H](O)[C@@H]2O)O[C@H](CO)[C@@H](O)[C@@H]1O[C@H](C)C(=O)N[C@@H](C)C(=O)N[C@H](CCC(=O)N[C@@H](CCCCNC(=O)CCCCCNc1ccc([N+](=O)[O-])c2nonc12)C(=O)N[C@H](C)C(=O)N[C@H](C)C(=O)O)C(=O)O` [Compound 6, NBD-Park’s nucleotide]: the Vmax on MraYBS R281A mutant was 10 ± 1.4 FLU/min; at MraYBS K226A mutant, 23 ± 4.7 FLU/min.
